Test results as given in patent US11976066B1 (priority 2023, dated 2024).
Values after ≈ are worked out from the molar mass of the structure shown. Read-outs that look alike come from different tables or passages of the source.

Tested on: Mycobacterium tuberculosis H37Rv
Test: Resazurin Microplate Assay (REMA), anti-tubercular activity, susceptible strain
Assay type: cell-based
Details: 192 h
[1] = H37Rv strain, 8 days incubation at 37° C, Middlebrook 7H9 broth, read-out: MIC Susceptible (H37Rv)

Structure (SMILES) | MIC (read-out: MIC Susceptible (H37Rv), H37Rv strain, 8 days incubation at 37° C, Middlebrook 7H9 broth) [µg/mL] | MIC [1] [µg/mL]
CCOC(=O)c1cc(C(=O)c2ccc(F)cc2)n2ccc(N)cc12 [Compound 3a, Ethyl 7-amino-3-(4-fluorobenzoyl)indolizine-1-carboxylate] | ~16 (≈ 49 µM) | –
CCOC(=O)c1cc(C(=O)c2ccccc2[N+](=O)[O-])n2ccc(N)cc12 [Compound 3b, Ethyl 7-amino-3-(2-nitrobenzoyl)indolizine-1-carboxylate] | – | ~8 (≈ 22.6 µM)
CCOC(=O)c1cc(C(=O)c2ccc(Br)cc2)n2ccc(N)cc12 [Compound 3e, Ethyl 7-amino-3-(4-bromobenzoyl)indolizine-1-carboxylate] | – | ~32 (≈ 82.6 µM)
